According to patent US12559529B2, “NPY2 receptor agonists” (Boehringer Ingelheim International GmbH, priority 2019, dated 2026):
*1 amine or outer side, *2 acyl side, *3 side chain or, on linkers, in order; H or OH if unused. Where a SMILES comes first, the peptide text is derived from it. Side-chain parts run from the residue outwards. The star is where a group is joined. C18 diacid = O=C(O)CCCCCCCCCCCCCCCCC(=O)*; γGlu = O=C(O)[C@H](CCC(=O)[*:2])N[*:1]; Isovaleryl = CC(C)CC(=O)*; AEEA = NCCOCCOCC(=O)O

Molecular target: T1, Human Neuropeptide Y2 Receptor (Homo sapiens, UniProt P49146)
T1 construct: purchased CHEMICON HTS066M
T1 sequence (P49146 1-381): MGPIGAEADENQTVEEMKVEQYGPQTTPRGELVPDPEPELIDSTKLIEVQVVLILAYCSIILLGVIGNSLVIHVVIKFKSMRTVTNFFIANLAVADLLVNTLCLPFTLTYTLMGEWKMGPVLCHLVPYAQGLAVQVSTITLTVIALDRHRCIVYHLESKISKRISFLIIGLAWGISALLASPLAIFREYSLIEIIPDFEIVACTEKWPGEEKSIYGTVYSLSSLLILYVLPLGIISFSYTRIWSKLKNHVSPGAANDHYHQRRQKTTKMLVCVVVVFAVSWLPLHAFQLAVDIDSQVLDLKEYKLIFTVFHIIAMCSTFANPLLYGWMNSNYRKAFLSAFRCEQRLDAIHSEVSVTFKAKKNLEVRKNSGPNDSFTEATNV
Assay: Radioligand binding competition assay (RLB)
Conditions: Table 3; human 125I-PYY (1-36) 0.02 nM, Y2 receptor membranes; read-out: Ki
How it was run: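 IC50 values come from nonlinear regression of sigmoidal dose-response curves of filter-bound radioactivity. Peptides competed with radioligand at human Y2 receptor membranes (0.5 μg protein/well) for 2 h at room temperature in pH 7.4 HEPES buffer containing Mg2+, Ca2+ and 0.2% ovalbumin.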

| Ki [nM] | SMILES |
| --- | --- |
| 12.3 | CC(C)CC(=O)N[C@@H](C)C(=O)N1CCC[C@H]1C(=O)N[C@@H](CCC(=O)O)C(=O)N[C@@H](CCCCNC(=O)COCCOCCNC(=O)COCCOCCNC(=O)CC[C@H](NC(=O)CCCCCCCCCCCCCCCCC(=O)O)C(=O)O)C(=O)N1CCC[C@H]1C(=O)N[C@@H](CCC(=O)O)C(=O)N[C@@H](CCC(=O)O)C(=O)N[C@@H](CCC(=O)O)C(=O)N[C@@H](C)C(=O)N[C@@H](CO)C(=O)N1CCC[C@H]1C(=O)N[C@@H](CCC(=O)O)C(=O)N[C@@H](CCC(=O)O)C(=O)N[C@@H](CC(C)C)C(=O)N[C@@H](CCC(=O)O)C(=O)N[C@@H](CCC(N)=O)C(=O)N[C@@H](Cc1ccc(O)cc1)C(=O)N[C@@H](Cc1ccc(O)cc1)C(=O)N[C@H](C(=O)N[C@@H](CO)C(=O)N[C@@H](CC(C)C)C(=O)N[C@@H](CCCNC(=N)N)C(=O)N[C@@H](Cc1c[nH]cn1)C(=O)N[C@@H](Cc1ccc(O)cc1)C(=O)N[C@@H](Cc1ccc(O)cc1)C(=O)N[C@@H](CC(N)=O)C(=O)N[C@@H](Cc1c[nH]c2ccccc12)C(=O)N[C@@H](CC(C)C)C(=O)N[C@H](C(=O)N[C@@H](CCCNC(=N)N)C(=O)N[C@@H](CCC(N)=O)C(=O)N[C@@H](CCCNC(=N)N)C(=O)N[C@@H](Cc1ccc(O)cc1)C(N)=O)[C@@H](C)O)C(C)C [Compound 170, N{alpha-4}-(3-methylbutanoyl)-N{epsilon-7}-[2-(2-{2-[2-(2-{2-[(4S)-4-carboxy-4-(17-carboxyheptadecanamido)butanamido]ethoxy}ethoxy)acetamido]ethoxy}ethoxy)acetamido]-[4A,7K,9E,11E,18E,19Q,22V,28Y,30W,31L]hPYY (4-36)] (Isovaleryl-APEK([AEEA-AEEA-γGlu-C18 diacid])PEEEASPEELEQYYVSLRHYYNWLTRQRY-NH2) |
| 2.55 | CC(C)CC(=O)N[C@@H](C)C(=O)N1CCC[C@H]1C(=O)N[C@@H](CCC(=O)O)C(=O)N[C@@H](CCCCNC(=O)COCCOCCNC(=O)COCCOCCNC(=O)CC[C@H](NC(=O)CCCCCCCCCCCCCCCCC(=O)O)C(=O)O)C(=O)N1CCC[C@H]1C(=O)N[C@@H](CCC(=O)O)C(=O)N[C@@H](CCC(=O)O)C(=O)N[C@@H](CC(=O)O)C(=O)N[C@@H](CO)C(=O)N[C@@H](CO)C(=O)N1CCC[C@H]1C(=O)N[C@@H](CCC(=O)O)C(=O)N[C@@H](CCC(=O)O)C(=O)N[C@@H](CC(C)C)C(=O)N[C@@H](CCC(N)=O)C(=O)N[C@@H](CCCNC(=N)N)C(=O)N[C@@H](Cc1ccc(O)cc1)C(=O)N[C@@H](Cc1ccc(O)cc1)C(=O)N[C@H](C(=O)N[C@@H](CCC(=O)O)C(=O)N[C@@H](CC(C)C)C(=O)N[C@@H](CCCNC(=N)N)C(=O)N[C@@H](Cc1c[nH]cn1)C(=O)N[C@@H](Cc1ccc(O)cc1)C(=O)N[C@@H](Cc1ccc(O)cc1)C(=O)N[C@@H](CC(N)=O)C(=O)N[C@@H](Cc1c[nH]c2ccccc12)C(=O)N[C@@H](CC(C)C)C(=O)N[C@H](C(=O)N[C@@H](CCCNC(=N)N)C(=O)N[C@@H](CCC(N)=O)C(=O)N[C@@H](CCCNC(=N)N)C(=O)N[C@@H](Cc1ccc(O)cc1)C(N)=O)[C@@H](C)O)C(C)C [Compound 177, N{alpha-4}-(3-methylbutanoyl)-N{epsilon-7}-[2-(2-{2-[2-(2-{2-[(4S)-4-carboxy-4-(17-carboxyheptadecanamido)butanamido]ethoxy}ethoxy)acetamido]ethoxy}ethoxy)acetamido]-[4A,7K,9E,12S,18Q,22V,23E,28Y,30W,31L]hPYY (4-36)] |
| 2.05 | CC(C)CC(=O)N[C@@H](C)C(=O)N1CCC[C@H]1C(=O)N[C@@H](CCC(=O)O)C(=O)N[C@@H](CCCCNC(=O)COCCOCCNC(=O)COCCOCCNC(=O)CC[C@H](NC(=O)CCCCCCCCCCCCCCCCC(=O)O)C(=O)O)C(=O)N1CCC[C@H]1C(=O)N[C@@H](CCC(=O)O)C(=O)N[C@@H](CCC(=O)O)C(=O)N[C@@H](CC(=O)O)C(=O)N[C@@H](C)C(=O)N[C@H](C(=O)N1CCC[C@H]1C(=O)N[C@@H](CCC(=O)O)C(=O)N[C@@H](CCC(=O)O)C(=O)N[C@H](C(=O)N[C@@H](CCC(=O)O)C(=O)N[C@@H](CCCNC(=N)N)C(=O)N[C@@H](Cc1ccc(O)cc1)C(=O)N[C@@H](Cc1ccc(O)cc1)C(=O)N[C@H](C(=O)N[C@@H](CO)C(=O)N[C@@H](CC(C)C)C(=O)N[C@@H](CCCNC(=N)N)C(=O)N[C@@H](Cc1c[nH]cn1)C(=O)N[C@@H](Cc1ccc(O)cc1)C(=O)N[C@@H](Cc1ccc(O)cc1)C(=O)N[C@@H](CC(N)=O)C(=O)N[C@@H](Cc1c[nH]c2ccccc12)C(=O)N[C@@H](CC(C)C)C(=O)N[C@H](C(=O)N[C@@H](CCCNC(=N)N)C(=O)N[C@@H](CCC(N)=O)C(=O)N[C@@H](CCCNC(=N)N)C(=O)N[C@@H](Cc1ccc(O)cc1)C(N)=O)[C@@H](C)O)C(C)C)[C@@H](C)O)[C@@H](C)O [Compound 178, N{alpha-4}-(3-methylbutanoyl)-N{epsilon-7}-[2-(2-{2-[2-(2-{2-[(4S)-4-carboxy-4-(17-carboxyheptadecanamido)butanamido]ethoxy}ethoxy)acetamido]ethoxy}ethoxy)acetamido]-[4A,7K,9E,13T,17T,18E,22V,28Y,30W,31L]hPYY (4-36)] (Isovaleryl-APEK([AEEA-AEEA-γGlu-C18 diacid])PEEDATPEETERYYVSLRHYYNWLTRQRY-NH2) |
| 1 | CC(C)CC(=O)N[C@@H](C)C(=O)N1CCC[C@H]1C(=O)N[C@@H](C)C(=O)N[C@@H](CCCCNC(=O)COCCOCCNC(=O)COCCOCCNC(=O)CC[C@H](NC(=O)CCCCCCCCCCCCCCCCC(=O)O)C(=O)O)C(=O)N1CCC[C@H]1C(=O)N[C@@H](CCC(=O)O)C(=O)N[C@@H](CCC(=O)O)C(=O)N[C@@H](CC(=O)O)C(=O)N[C@@H](C)C(=O)N[C@@H](CO)C(=O)N1CCC[C@H]1C(=O)N[C@@H](C)C(=O)N[C@@H](CCC(=O)O)C(=O)N[C@@H](CC(C)C)C(=O)N[C@@H](CCC(N)=O)C(=O)N[C@@H](CCCNC(=N)N)C(=O)N[C@@H](Cc1ccc(O)cc1)C(=O)N[C@@H](Cc1ccc(O)cc1)C(=O)N[C@H](C(=O)N[C@@H](CO)C(=O)N[C@@H](CC(C)C)C(=O)N[C@@H](CCCNC(=N)N)C(=O)N[C@@H](Cc1c[nH]cn1)C(=O)N[C@@H](Cc1ccc(O)cc1)C(=O)N[C@@H](Cc1ccc(O)cc1)C(=O)N[C@@H](CC(N)=O)C(=O)N[C@@H](Cc1c[nH]c2ccccc12)C(=O)N[C@@H](CC(C)C)C(=O)N[C@H](C(=O)N[C@@H](CCCNC(=N)N)C(=O)N[C@@H](CCC(N)=O)C(=O)N[C@@H](CCCNC(=N)N)C(=O)N[C@@H](Cc1ccc(O)cc1)C(N)=O)[C@@H](C)O)C(C)C [Compound 179, N{alpha-4}-(3-methylbutanoyl)-N{epsilon-7}-[2-(2-{2-[2-(2-{2-[(4S)-4-carboxy-4-(17-carboxyheptadecanamido)butanamido]ethoxy}ethoxy)acetamido]ethoxy}ethoxy)acetamido]-[4A,6A,7K,9E,15A,18Q,22V,28Y,30W,31L]hPYY (4-36)] |
| 0.67 | CC(C)CC(=O)N[C@@H](C)C(=O)N1CCC[C@H]1C(=O)N[C@@H](CCC(=O)O)C(=O)N[C@@H](CCCCNC(=O)COCCOCCNC(=O)COCCOCCNC(=O)CC[C@H](NC(=O)CCCCCCCCCCCCCCCCC(=O)O)C(=O)O)C(=O)N1CCC[C@H]1C(=O)N[C@@H](CCC(=O)O)C(=O)N[C@@H](C)C(=O)N[C@@H](CC(=O)O)C(=O)N[C@@H](C)C(=O)N[C@@H](CO)C(=O)N1CCC[C@H]1C(=O)N[C@@H](CCC(=O)O)C(=O)N[C@@H](CCC(=O)O)C(=O)N[C@@H](CC(C)C)C(=O)N[C@@H](CCC(N)=O)C(=O)N[C@@H](CCCNC(=N)N)C(=O)N[C@@H](Cc1ccc(O)cc1)C(=O)N[C@@H](Cc1ccc(O)cc1)C(=O)N[C@H](C(=O)N[C@@H](C)C(=O)N[C@@H](CC(C)C)C(=O)N[C@@H](CCCNC(=N)N)C(=O)N[C@@H](Cc1c[nH]cn1)C(=O)N[C@@H](Cc1ccc(O)cc1)C(=O)N[C@@H](Cc1ccc(O)cc1)C(=O)N[C@@H](CC(N)=O)C(=O)N[C@@H](Cc1c[nH]c2ccccc12)C(=O)N[C@@H](CC(C)C)C(=O)N[C@H](C(=O)N[C@@H](CCCNC(=N)N)C(=O)N[C@@H](CCC(N)=O)C(=O)N[C@@H](CCCNC(=N)N)C(=O)N[C@@H](Cc1ccc(O)cc1)C(N)=O)[C@@H](C)O)C(C)C [Compound 181, N{alpha-4}-(3-methylbutanoyl)-N{epsilon-7}-[2-(2-{2-[2-(2-{2-[(4S)-4-carboxy-4-(17-carboxyheptadecanamido)butanamido]ethoxy}ethoxy)acetamido]ethoxy}ethoxy)acetamido]-[4A,7K,9E,10A,18Q,22V,23A,28Y,30W,31L]hPYY (4-36)] |
